Measured values taken from patent US20220202912A1, “Polypeptides in Preparation of Drugs for Treatment or Prevention of Rheumatoid Arthritis” (priority 2011, published 2022).
Several values for one entry are separate records, joined by “and”; a condition that tells them apart may be missing. Equal values may be shown once. Where no end group is shown, it is not given here.

Legend:
[1] = test system: CIA transgenic TNF-luc mice; test: collagen type II-induced arthritis in transgenic TNF-luc mice (swelling, scores, weight); assay type: in vivo, BALB/c transgenic TNF-luc mice; parameters: key to joint index score / arthritis index score: 0–4 per paw, four paws summed, max 16; key to swelling degree of right ankle: cm, day n thickness minus initial ankle thickness; key to systemic score: systemic score points, max 8; conditions: for left ankle swelling / right ankle swelling changes / arthritis index score / clinical score: Adalimumab 8 mg/kg, mPEG-SC20k-HM-3 20 mg/kg; for right ankle swelling changes: CIA TNF-luc mice; for right ankle swelling changes / arthritis index score / clinical score: mean ± SD; for arthritis index score / clinical score: CIA chronic model; for systemic score / joint index score / swelling degree of right ankle: 20 mg/kg
Description: 8 animals are randomly divided into 4 groups (n=2), a normal group, a model group, a positive drug group and a test group. On day 0, for the primary immunization, mice are hypodermically injected with 50 μL collagen emulsifier (containing CII 100 μg/ mouse) at the tail root of mice for sensitization. On day 0, initial ankle widths, initial foot palm widths and initial toe thicknesses of left and right feet of mice in each group are measured separately.
After day 21, the same dosage of emulsifier is used for second immunization at the tail root. After the symptoms such as redness and swelling of joints appear on the four toes of mice, continuous administration is performed for 15 days. The normal group and the model group are separately hypodermically injected with 0.9% normal saline (0.2 mL/20 g of body weight), once every 2 days, 7 times in total. The positive drug Adalimumab group is hypodermically injected with Adalimumab (8 mg/kg of body weight), once every 15 days, once in total. The test treatment group is hypodermically injected with mPEG-SC20k-HM-3 (20 mg/kg of body weight), once every 2 days, 7 times in total.
Every 2 days, the thickness of the ankle, the width of the foot palm and the thickness of the toes of each group of mice are measured with a vernier caliper.
Swelling degree of left ankle (cm)=swelling thickness of left ankle on day n of the experiment−measured initial thickness of left ankle.
Swelling degree of right ankle (cm)=swelling thickness of right ankle on day n of the experiment−measured initial thickness of right ankle.
The joints of the mouse paw are observed with naked eyes, and the joints are scored every 2 days from day 30. Scoring is performed in terms of level 0 to level 4, 5 levels in total. 0=no erythema or swelling; 1=slight erythema or swelling, with erythema or swelling on one of the front/hind toe joints; 2=erythema or swelling on more than one toe; 3=swelling of paw beneath the ankle or wrist joint; 4=swelling of all paws including the ankle joint. Four paws of the mice are scored separately, and the highest score is 16 points.
After the secondary inflammation appears, systemic scoring is performed every 2 days, and the scoring standards are as follows:
Hind foot: no swelling=0 point, swelling of one hind foot=1 point, swelling of two hind feet=2 points.
Front foot: no swelling=0, swelling of one front foot=1 point, swelling of two front feet=2 points.
Ears: no redness symptoms and nodules=0 point, redness symptoms or nodules of one ear=1 point, red symptoms and nodules of two ears=2 points.
Nose: no swelling=0 point, obvious swelling=1 point.
Tail: no nodule=0 point, nodules=1 point; the highest score is 8 points.

[2] = test system: macrophages (PMA-induced U937 cells); test: Western blot of protein expression in macrophages (PMA-induced U937 cells); assay type: cell-based, human
Description: 3.1 U937 cells are added to a 6-well plate (1.5×10^5 cells/mL), PMA (25 ng/mL) is used for induction for 48 h, and the cells adhere and differentiate into macrophages. Positive drug Adalimumab (25 μg/mL, 50 μg/mL, 100 μg/mL, 200 μg/mL, 400 μg/mL), Avastin (25 μg/mL, 50 μg/mL) are added, the final concentrations of mPEG-SC20k-HM-3 are 2.25, 4.5, 9.0, 13.5, 18.0, 36 μmol/L, and isovolumetric PBS is added to the blank group and the model group. The cells are incubated in a CO2 incubator at 37° C. for 24 or 48 h. Rat synovial cells are induced with LPS for 24 h and then mPEG-SC20k-HM-3 is administrated to final concentrations of 2.25, 4.5, 9.0, 13.5, 18.0 μmol/L, and the cells are incubated in a CO2 incubator at 37° C. for 48 h.
3.3 A protein extract solution is added at 20 μL/1×10^5 cells, and the cells are pipetted and dispersed, and stand at 4° C. for 30 min to lyse the cells.
3.4 1/4 volume of 5×protein loading buffer is added, and boiling water bath is performed for 5-10 min.
3.5 20 μL of protein sample is taken and 10% SDS-PAGE electrophoresis is performed.
3.6 The protein on the gel is transferred to the PVDF membrane by using a wetting transfer method with a constant current of 100 mA for 1-2.5 h.
3.7 The PVDF membrane is blocked with a blocking solution at room temperature for 2 h.
3.8 The membrane is washed for 3 times with PBST, 5 min each time. A primary antibody is added and the membrane stands at 4° C. overnight or is incubated at 37° C. for 2 h.
3.9 The membrane is washed for 3 times with PBST, 5 min each time. A secondary antibody is added and the membrane is incubated at room temperature for more than 2 h.
3.10 The membrane is exposed in a gel imager using an ECL detection kit.

[3] = with the increase of the dosage

“mPEG-SC20k-Ile-Val-Arg-Arg-Ala-Asp-Arg-Ala-Ala-Val-Pro-Gly-Gly-Gly-Gly-Arg-Gly-Asp ({mPEG‑SC 20k}-IVRRADRAAVPGGGGRGD) [polypeptide III, No. 3]” was tested, and the left ankle swelling ([1]; 0 d) was 0.000 ± 0.000 cm, the “right ankle swelling changes” value ([1]; 0 d) was 0.000 ± 0.000 cm and the left ankle swelling ([1]; 12 d) was 0.011 ± 0.004 cm. The “right ankle swelling changes” value ([1]; 12 d) was 0.005 ± 0.021 cm, the left ankle swelling ([1]; 15 d) was 0.028 ± 0.023 cm and the “right ankle swelling changes” value ([1]; 15 d) was 0.003 ± 0.004 cm. The left ankle swelling ([1]; 18 d) was 0.016 ± 0.008 cm, the “right ankle swelling changes” value ([1]; 18 d) was 0.011 ± 0.016 cm and the left ankle swelling ([1]; 21 d) was 0.011 ± 0.010 cm. For the same substance, the “right ankle swelling changes” value ([1]; 21 d) was 0.010 ± 0.011 cm, the left ankle swelling ([1]; 24 d) was 0.008 ± 0.006 cm and the “right ankle swelling changes” value ([1]; 24 d) was 0.007 ± 0.005 cm. For the same substance, the left ankle swelling ([1]; 27 d) was 0.009 ± 0.004 cm, the “right ankle swelling changes” value ([1]; 27 d) was 0.004 ± 0.014 cm and the left ankle swelling ([1]; 30 d) was 0.003 cm. The “right ankle swelling changes” value ([1]; 30 d) was 0.015 ± 0.001 cm, the arthritis index score ([1]; 30 d) was 5.50 ± 0.71 and the clinical score ([1]; 30 d) was 4.50 ± 0.71. The left ankle swelling ([1]; 33 d) was 0.007±0.013 cm, the “right ankle swelling changes” value ([1]; 33 d) was 0.018 ± 0.020 cm and the arthritis index score ([1]; 33 d) was 7.00 ± 1.41. The clinical score ([1]; 33 d) was 4.00 ± 0.00, the left ankle swelling ([1]; 36 d) was 0.006 ± 0.006 cm and the “right ankle swelling changes” value ([1]; 36 d) was 0.006 ± 0.008 cm. It also gave an arthritis index score ([1]; 36 d) of 6.50 ± 0.71, a clinical score ([1]; 36 d) of 4.00 ± 0.00 and a left ankle swelling ([1]; 39 d) of 0.026±0.023 cm. The “right ankle swelling changes” value ([1]; 39 d) was 0.001 ± 0.007 cm, the arthritis index score ([1]; 39 d) was 6.00 ± 0.00 and the clinical score ([1]; 39 d) was 4.00 ± 0.00. The left ankle swelling ([1]; 42 d) was 0.004 ± 0.006 cm, the “right ankle swelling changes” value ([1]; 42 d) was 0.017 ± 0.004 cm and the arthritis index score ([1]; 42 d) was 4.50 ± 0.71. For the same substance, the clinical score ([1]; 42 d) was 4.00 ± 0.00, the left ankle swelling ([1]; 45 d) was 0.011±0.004 cm and the “right ankle swelling changes” value ([1]; 45 d) was 0.000 ± 0.006 cm. The arthritis index score ([1]; 45 d) was 4.50 ± 0.71, the clinical score ([1]; 45 d) was 4.00 ± 0.00 and the left ankle swelling ([1]; 48 d) was 0.001±0.021 cm. The “right ankle swelling changes” value ([1]; 48 d) was 0.001 ± 0.007 cm, the arthritis index score ([1]; 48 d) was 4.50 ± 0.71 and the clinical score ([1]; 48 d) was 5.00 ± 0.00. For the same substance, the left ankle swelling ([1]; 51 d) was 0.023±0.007 cm and 0.023 cm, the “right ankle swelling changes” value ([1]; 51 d) was 0.005 ± 0.007 cm and the arthritis index score ([1]; 51 d) was 4.50 ± 0.71. It also gave a clinical score ([1]; 51 d) of 4.00 ± 0.00, a systemic score ([1]; day 33) of 4.00±0.00 and a joint index score ([1]; day 36) of 6.50±0.71. For the same substance, the “swelling degree of right ankle” value ([1]; day 36) was 0.006±0.008, the systemic score ([1]; day 36) was 4.00±0.00 and the joint index score ([1]; day 39) was 6.00±0.00. For the same substance, the “swelling degree of right ankle” value ([1]; day 39) was 0.001±0.008, the systemic score ([1]; day 39) was 4.00±0.00 and the joint index score ([1]; day 42) was 4.50±0.7. For the same substance, the “swelling degree of right ankle” value ([1]; day 42) was 0.001±0.007, the systemic score ([1]; day 42) was 4.00±0.00 and the joint index score ([1]; day 45) was 4.50±0.71. The “swelling degree of right ankle” value ([1]; day 45) was 0.000±0.006, the systemic score ([1]; day 45) was 4.00±0.00 and the joint index score ([1]; day 48) was 4.50±0.71. The “swelling degree of right ankle” value ([1]; day 48) was 0.001±0.007, the joint index score ([1]; day 51) was 4.50±0.71 and the “swelling degree of right ankle” value ([1]; day 51) was 0.005±0.007. For the same substance, the systemic score ([1]; day 51) was 4.00±0.00, the “dose with the best inhibitory effect on the expression of Integrin α5, Integrin β1, VEGFR2, HIF-1β, IL-6 proteins” value [2] was 13.5 µM and the “dose with the best inhibitory effect on the expression of TNFR1 protein” value [2] was 18 µM. For the same substance, the “dose with the best inhibitory effect on the expression of TNFR2, NF-κB and TNF-α proteins” value [2] was 4.5 µM, the “expression of HIF-1β and IL-6 protein in macrophages” value [2, 3] was “down-regulated” and the “expression of NF-κB protein factors in nuclei” value [2, 3] was “down-regulated”. For the same substance, the “expression of TNFR1 and TNFR2 protein factors in macrophages” value [2, 3] was “down-regulated” and the “expression of integrin α5, Integrin β1 and VEGFR2 proteins in macrophages” value [2, 3] was “down-regulated”.
